Results as given in patent US20260191819A1, “COMPOSITION FOR THE TREATMENT OF THE HUMAN PAPILLOMAVIRUS INFECTION (HPV)” (LO.LI. PHARMA S.R.L., priority 2022, published 2026).

Assays:
cell model in vitro = conditions: cited from earlier work
Hela cells = test: Annexin V/7-AAD staining, apoptosis in Hela cells; type: cell-based, human; conditions: 48 hr, EGCG 50 mcg/ml, Fol 900 nM, B12 1000 nM, Hyal 10 mcg/ml, FIG. 1
Method: The combined action of epigallocatechin gallate (EGCG) and at least one the following other agents: folic acid, vitamin B12, hyaluronic acid, in respect to the single substance, has been tested in vitro in immortalized cervical cancer cell line (HeLa).
The cells were seeded in […] flasks in low glucose DMEM, to which had been added FBS (Fetal Bovine Serum) 10%, L-Glu (L-glutamine) 1%, Pen/Strep (penicillin/streptomycin) 1%. The cells were kept in an incubator at a temperature of 37° C., 5% carbon dioxide and 95% humidity and maintained in culture, as described above, until they reached 50% confluency. On the day of the experiment the cells were treated as follows: • 1. […]
Apoptosis (cell death) was evaluated after 48 hours of treatment using the Annexin V kit. The expression of onco-suppressor genes (p53 and/or pRB) and/or viral E6 and/or E7 genes was evaluated after 48 hours of treatment through use of real time PCR. […]
Hela cells were cultured at confluence into 25 cm^2 flasks (Falcon, Becton Dickinson Labware, Franklin Lakes, NJ, USA) in complete medium. […] After 48 hr of treatment, cell status was assessed through use of the FITC Annexin V Apoptosis Detection Kit I according to the instructions of the manufacturer (BD Pharmingen™). […]

vaginal atrophy = conditions: 12 post-menopausal women, 3-month treatment; cited from earlier work
viral protein E7 = conditions: cited from earlier work
human cervical lesions = conditions: EGCG tablets (200 mg), 8-12 weeks, cited from earlier work
p53 protein = conditions: cited from earlier work
[1] = test system: epithelial cervical cell line infected with high-risk HPV (TLC1 and cervical cancer lines such as Hela and Me180); conditions: dose-dependent manner; cited from earlier work
[2] = cytology, colposcopy, histology, HPV DNA test

| Substance | process of wound healing in comparison with the control (cell model in vitro) | apoptosis (cell death) compared to control (Hela cells) | mucous membrane (vaginal atrophy) | symptoms related to vaginal atrophy (itching, burning, and dyspareunia) (vaginal atrophy) | level of viral protein E7 expression (viral protein E7) | treated women with improvement of general clinical status (human cervical lesions; 88 women) [%] | women with moderate lesions responding positively to the treatment (human cervical lesions; [2]) [%] | women with serious lesions responding positively to the treatment (human cervical lesions; [2]) [%] | level of p53 protein expression (p53 protein) | apoptosis, i.e., cell death [1] | cellular growth [1] |
| --- | --- | --- | --- | --- | --- | --- | --- | --- | --- | --- | --- |
| hyaluronic acid | significantly accelerates the process of wound healing | significantly increased apoptosis | restores the mucous membrane | dramatically reducing symptoms |  |  |  |  |  |  |  |
| (−)-epigallocatechin gallate [EGCG] |  | no differences in apoptosis levels |  |  | reduces that of the viral protein E7 | 60 | 100 | 71 | increases the level of p53 protein expression | promotes apoptosis | inhibits cellular growth |
